Patent publication US20240190838A1, “LZK-TARGETING DEGRADERS AND METHODS OF USE” (The U.S.A., as represented by the Secretary, Department of …, priority 2020, published 2024)
Values belong to the molecule of their own block, whether it stands above or below them.

Legend:
Type in all cases: cell-based
CAL33 cells [1] = assay: MTS cell viability assay, CAL33
Experimental: A Cell Titer 96 AQueous One Solution Cell Proliferation Assay (Promega) was used for MTS assays following the manufacturer's protocol. […] MTS was added, cells were incubated for two hours, and absorbance was measured at 490 nm using iMark™ Microplate Absorbance Reader (Bio-Rad). Graphs display percent cell viability relative to the DMSO-treated control sample. EC50 values were determined using GraphPad Prism 8.

NCI-H520 cells = assay: Colony formation assay, NCI-H520
Experimental: (§1) Crystal violet assays were used to assess relative cell growth and survival after treatment with specific compounds. In general, cells were plated in triplicate in 12-well plates for 24 hours before drug treatments were added using 10% FBS media. The plates were incubated for 14 days, with the media and drug being replaced every 48 hours. The cells were then washed with phosphate-buffered saline and fixed in ice-cold methanol before being stained with 0.5% crystal violet (Sigma-Aldrich) in 25% methanol. Images were taken using a ChemiDoc MP Imaging System (Bio Rad), and for quantification, the crystal violet stain was dissolved in 33% acetic acid, incubated for 20 minutes with shaking, and read at 595 nm using iMark™ Microplate Absorbance Reader (Bio-Rad). Graphs display percent colony formation relative to the DMSO-treated control sample.

LZK = biological target: T1, LZK (Homo sapiens, UniProt O43283); assay: LZK inhibition in cells monitored by downstream JNK phosphorylation (dox-induced LZK); design: V5 (named only in the vector); expressed in transfected cells; host or cells: CAL33 HNSCC cells, lentiviral T-REx system, induced with doxycycline; conditions: for duration of JNK pathway inactivation / time at which LZK activity toward JNK was inhibited: 250 nM; for LZK inhibition in cells, measured by inhibition of downstream JNK pathway activation: dox-inducible LZK in CAL33 cells
T1 sequence (O43283 1-966): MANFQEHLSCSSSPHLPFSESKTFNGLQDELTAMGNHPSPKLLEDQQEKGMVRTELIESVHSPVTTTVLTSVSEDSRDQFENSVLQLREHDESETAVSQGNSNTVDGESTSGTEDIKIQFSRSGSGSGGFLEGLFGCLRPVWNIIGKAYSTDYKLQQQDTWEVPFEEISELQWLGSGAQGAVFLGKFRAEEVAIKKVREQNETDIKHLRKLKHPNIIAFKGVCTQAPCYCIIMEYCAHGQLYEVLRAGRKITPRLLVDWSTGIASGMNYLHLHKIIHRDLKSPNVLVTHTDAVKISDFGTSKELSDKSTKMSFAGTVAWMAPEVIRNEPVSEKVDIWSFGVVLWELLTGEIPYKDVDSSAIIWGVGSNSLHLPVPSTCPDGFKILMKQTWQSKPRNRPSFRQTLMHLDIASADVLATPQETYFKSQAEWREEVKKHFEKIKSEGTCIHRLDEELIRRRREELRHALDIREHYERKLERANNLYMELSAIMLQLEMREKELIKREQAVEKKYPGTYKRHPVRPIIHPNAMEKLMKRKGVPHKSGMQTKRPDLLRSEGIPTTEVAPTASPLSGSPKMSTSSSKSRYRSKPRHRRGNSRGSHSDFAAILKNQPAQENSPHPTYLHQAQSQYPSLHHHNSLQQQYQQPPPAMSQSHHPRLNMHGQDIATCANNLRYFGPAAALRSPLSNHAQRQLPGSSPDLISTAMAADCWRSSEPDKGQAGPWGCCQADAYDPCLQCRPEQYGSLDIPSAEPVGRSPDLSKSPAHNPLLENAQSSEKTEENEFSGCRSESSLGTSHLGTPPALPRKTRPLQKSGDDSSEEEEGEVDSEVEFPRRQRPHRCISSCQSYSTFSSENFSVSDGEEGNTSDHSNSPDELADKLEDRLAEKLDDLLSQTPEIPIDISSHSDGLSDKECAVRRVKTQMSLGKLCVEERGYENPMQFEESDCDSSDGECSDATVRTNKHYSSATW
From the text: The ViraPower HiPerform T-REx Gateway Expression System (Invitrogen) was used to generate cells with tetracycline-inducible expression of LZK. In brief, wild-type (WT) or drug-resistant mutant (Q240S) LZK (cloned into pLenti6.3/TO/V5-DEST vector) and pLenti3.3/TR (for tetracycline repressor expression) were transfected into 293FT cells using Lipofectamine 2000 to generate lentiviral stock. Cell lines were generated by antibiotic selection (blasticidin [Gibco] and geneticin [Gibco]). Doxycycline (Sigma-Aldrich) was used at 1 μg/mL to induce LZK expression.
Generally, cells were plated in six-well or 35-mm plates for 24 hours, after which doxycycline was added or treatment with specific inhibitor was administered using […] for 48 hours. After appropriate treatment time, cells were washed with ice-cold phosphate-buffered saline without Ca and Mg (Quality Biological) and then lysed on ice with RIPA buffer (50 mM NaCl, 1.0% o IGEPAL® CA-630, 0.5% o sodium deoxycholate, 0.10% SDS, 50 mM Tris, pH 8.0) (Sigma-Aldrich) supplemented with protease inhibitor tablet (Sigma-Aldrich) and phosphatase inhibitor cocktails 2 and 3 (Sigma-Aldrich) followed by centrifugation at 15,000 rpm for 10 minutes at 4° C. Protein concentrations were determined from the cell lysate by using 660 nm Protein Assay Reagent (Pierce). Cell extracts were denatured, subjected to SDS-PAGE, transferred to PVDF membranes (Bio-Rad) and blocked for 2 hours using 5 bovine serum albumin (BSA) in phosphate-buffered saline and 0.10 Tween® 20 (PBS-T). The membranes were incubated with the specific antibodies overnight in […] at 4° C. followed by a 1 hour incubation with the appropriate horseradish peroxidase-conjugated secondary antibodies and signal was detected by chemiluminescence (Thermo Fisher).
A PathScan® Phospho-SAPK/JNK (Thr183/Tyr185) Sandwich ELISA Assay (Cell Signaling Technology) was used for ELISA assays following the manufacturer's protocol. In general, 500,000 cells were plated and treated with doxycycline the following day where appropriate and incubated at 37° C. for 48 hours. Cells were treated with the drug compound or control in 5% FBS media for 1 hour. After appropriate treatment time, cells were lysed on ice with 1x Cell Lysis Buffer (Cell Signaling Technology) supplemented with phosphatase and protease inhibitors (Sigma). Each diluted cell lysate was added to Phospho-SAPK/JNK (Thr183/Tyr185)Rabbit mAb Coated microwells in triplicate and incubated overnight at 4° C. Samples were treated with the following antibodies and incubated at 37° C. for 1 hour and 30 minutes, respectively: Detection Antibody and HRP-Linked secondary antibody. Samples were washed between treatments using 1× Wash Buffer according to the manufacturer's protocol. TMB substrate was added to each well and incubated at 37° C. for 10 minutes. Following this, STOPsolution was added to each well and absorbance was measured at 450 nm using iMark™ Microplate Absorbance Reader (Bio-Rad). Graphs display relative phospho-JNK levels.

BICR56 cells = assay: Colony formation assay, BICR56
Experimental: as §1

LK2 cells = assay: Colony formation assay, LK2
Experimental: as §1

CAL33 cells [2] = assay: Colony formation assay, CAL33
Experimental: as §1

[3] = LZK inhibitor 2, concentration not stated

JNK signaling inhibition by targeted degraders (LZK; CAL33 cells induced with doxycycline, 0-10 μM): inhibited JNK signaling
Compound: Cc1ncsc1-c1ccc([C@H](C)NC(=O)[C@@H]2C[C@@H](O)CN2C(=O)[C@@H](NC(=O)CCCCCCC(=O)N2CCC(c3cc(Nc4cc(C#N)ccn4)nc(N4CCC(F)(F)C4)c3)CC2)C(C)(C)C)cc1 [Compound 3]
short-term cell viability (CAL33 cells [1]): reduced
LSCC cell growth (NCI-H520 cells; 2.5 μM): significantly decreased LSCC cell growth
clonogenic growth (BICR56 cells; 1 μM for 14 days): significant decreases in clonogenic growth
colony formation (BICR56 cells; 2.5 μM): almost complete loss of colony formation
LSCC cell growth (LK2 cells; 2.5 μM): significantly decreased LSCC cell growth
clonogenic growth (CAL33 cells [2]; 1 μM for 14 days): significant decreases in clonogenic growth
colony formation (CAL33 cells [2]; 2.5 μM): almost complete loss of colony formation

Compound: N#Cc1ccnc(Nc2cc(C3CCN(C4COC4)CC3)cc(N3CCC(F)(F)C3)n2)c1 [GNE-3511]
IC50 (CAL33 cells [1]; Homo sapiens, CAL-33, 72 hours, read-out: IC50, viability in short-term MTS assay): 688 ± 114 nM
reduction in colony formation (NCI-H520 cells; 500 nM): 55%
LZK activity, as monitored by downstream JNK phosphorylation (LZK; 100 nM to 5 μM at 1 hour): inhibited LZK activity
duration of JNK pathway inactivation (LZK): up to 72 hours
time at which LZK activity toward JNK was inhibited (LZK): ≤ 15 min
LZK inhibition in cells, measured by inhibition of downstream JNK pathway activation (LZK): potent LZK inhibitor in cells
reduction in colony formation (BICR56 cells; 200 nM, 14 days): ≥ 80%
reduction in colony formation (LK2 cells; 500 nM): 45%
reduction in colony formation (CAL33 cells [2]; 200 nM, 14 days): ≥ 80%

duration of JNK pathway inactivation (LZK): 72 h
time at which LZK activity toward JNK was inhibited (LZK): five
concentration at which LZK activity was suppressed (LZK; 1 hour): 100 nM
LZK inhibition in cells, measured by inhibition of downstream JNK pathway activation (LZK): potent LZK inhibitor
Compound: CC(=O)N1CCC(c2cc(Nc3cc(C#N)ccn3)nc(N3CCC(F)(F)C3)c2)CC1 [LZK inhibitor 2]
rescue of drug-induced loss of viability by LZK^Q240S expression (CAL33 cells [1]; 72-hour MTS assay): rescued decreases in viability
LSCC cell growth (NCI-H520 cells; 1 μM): significantly decreased LSCC cell growth
JNK signaling inhibition compared with GNE-3511 (LZK; one hour): inhibited JNK signaling at lower concentrations than GNE-3511
colony formation (BICR56 cells; [3]): suppressed colony formation
LSCC cell growth (LK2 cells; 1 μM): significantly decreased LSCC cell growth
colony formation (CAL33 cells [2]; [3]): suppressed colony formation
